Experimental data taken from ChEMBL document CHEMBL1275409, “Antimicrobial-resistant pathogens in intensive care units in Canada: results of the Canadian National Intensive Care Unit (CAN-ICU) study, 2005-2006” (2008).

Key:
Assay type in all cases: functional
Staphylococcus aureus [1] = experiment: Antimicrobial activity against methicillin-susceptible Staphylococcus aureus isolated from ICU patient blood assessed as resistant isolates by broth microdilution method in presence of beta-lactamase inhibitor Tazobactam
Staphylococcus aureus [2] = experiment: Antimicrobial activity against methicillin-susceptible Staphylococcus aureus assessed as resistant isolates by broth microdilution method in presence of beta-lactamase inhibitor Tazobactam
Staphylococcus aureus [3] = experiment: Antimicrobial activity against methicillin-susceptible Staphylococcus aureus isolated from ICU patient wound assessed as resistant isolates by broth microdilution method in presence of beta-lactamase inhibitor Tazobactam
Staphylococcus aureus [4] = experiment: Antimicrobial activity against methicillin-susceptible Staphylococcus aureus isolated from ICU patient respiratory tract assessed as resistant isolates by broth microdilution method in presence of beta-lactamase inhibitor Tazobactam
Staphylococcus aureus [5] = experiment: Antimicrobial activity against methicillin-resistant Staphylococcus aureus assessed as resistant isolates by broth microdilution method in presence of beta-lactamase inhibitor Tazobactam
Staphylococcus aureus [6] = experiment: Antimicrobial activity against methicillin-resistant Staphylococcus aureus isolated from ICU patient blood assessed as resistant isolates by broth microdilution method in presence of beta-lactamase inhibitor Tazobactam
Staphylococcus aureus [7] = experiment: Antimicrobial activity against methicillin-resistant Staphylococcus aureus isolated from ICU patient urine assessed as resistant isolates by broth microdilution method in presence of beta-lactamase inhibitor Tazobactam
Staphylococcus aureus [8] = experiment: Antimicrobial activity against methicillin-resistant Staphylococcus aureus isolated from ICU patient wound assessed as resistant isolates by broth microdilution method in presence of beta-lactamase inhibitor Tazobactam
Staphylococcus aureus [9] = experiment: Antimicrobial activity against methicillin-resistant Staphylococcus aureus isolated from ICU patient respiratory tract assessed as resistant isolates by broth microdilution method in presence of beta-lactamase inhibitor Tazobactam
[10] = test system: Staphylococcus epidermidis; experiment: Antimicrobial activity against methicillin-susceptible Staphylococcus epidermidis assessed as resistant isolates by broth microdilution method in presence of beta-lactamase inhibitor Tazobactam
[11] = test system: Staphylococcus epidermidis; experiment: Antimicrobial activity against methicillin-susceptible Staphylococcus epidermidis isolated from ICU patient blood assessed as resistant isolates by broth microdilution method in presence of beta-lactamase inhibitor Tazobactam
[12] = test system: Staphylococcus epidermidis; experiment: Antimicrobial activity against methicillin-susceptible Staphylococcus epidermidis isolated from ICU patient urine assessed as resistant isolates by broth microdilution method in presence of beta-lactamase inhibitor Tazobactam
[13] = test system: Staphylococcus epidermidis; experiment: Antimicrobial activity against methicillin-susceptible Staphylococcus epidermidis isolated from ICU patient wound assessed as resistant isolates by broth microdilution method in presence of beta-lactamase inhibitor Tazobactam
[14] = test system: Staphylococcus epidermidis; experiment: Antimicrobial activity against methicillin-susceptible Staphylococcus epidermidis isolated from ICU patient respiratory tract assessed as resistant isolates by broth microdilution method in presence of beta-lactamase inhibitor Tazobactam
[15] = test system: Staphylococcus epidermidis; experiment: Antimicrobial activity against methicillin-resistant Staphylococcus epidermidis assessed as resistant isolates by broth microdilution method in presence of beta-lactamase inhibitor Tazobactam
[16] = test system: Staphylococcus epidermidis; experiment: Antimicrobial activity against methicillin-resistant Staphylococcus epidermidis isolated from ICU patient blood assessed as resistant isolates by broth microdilution method in presence of beta-lactamase inhibitor Tazobactam
[17] = test system: Staphylococcus epidermidis; experiment: Antimicrobial activity against methicillin-resistant Staphylococcus epidermidis isolated from ICU patient urine assessed as resistant isolates by broth microdilution method in presence of beta-lactamase inhibitor Tazobactam
[18] = test system: Staphylococcus epidermidis; experiment: Antimicrobial activity against methicillin-resistant Staphylococcus epidermidis isolated from ICU patient wound assessed as resistant isolates by broth microdilution method in presence of beta-lactamase inhibitor Tazobactam
Haemophilus influenzae [19] = experiment: Antimicrobial activity against Haemophilus influenzae isolated from ICU patient respiratory tract assessed as resistant isolates by broth microdilution method in presence of beta-lactamase inhibitor Tazobactam
Haemophilus influenzae [20] = experiment: Antimicrobial activity against Haemophilus influenzae isolated from ICU patient wound assessed as resistant isolates by broth microdilution method in presence of beta-lactamase inhibitor Tazobactam
Enterococcus sp. [21] = experiment: Antimicrobial activity against vancomycin-resistant Enterococcus sp. assessed as resistant isolates by broth microdilution method in presence of beta-lactamase inhibitor Tazobactam
Enterococcus sp. [22] = experiment: Antimicrobial activity against vancomycin-resistant Enterococcus sp. isolated from ICU patient blood assessed as resistant isolates by broth microdilution method in presence of beta-lactamase inhibitor Tazobactam
Enterococcus sp. [23] = experiment: Antimicrobial activity against vancomycin-resistant Enterococcus sp. isolated from ICU patient urine assessed as resistant isolates by broth microdilution method in presence of beta-lactamase inhibitor Tazobactam
Enterococcus sp. [24] = experiment: Antimicrobial activity against vancomycin-resistant Enterococcus sp. isolated from ICU patient wound assessed as resistant isolates by broth microdilution method in presence of beta-lactamase inhibitor Tazobactam
Enterococcus sp. [25] = experiment: Antimicrobial activity against vancomycin-resistant Enterococcus sp. isolated from ICU patient respiratory tract assessed as resistant isolates by broth microdilution method in presence of beta-lactamase inhibitor Tazobactam
Escherichia coli [26] = experiment: Antimicrobial activity against CTX-M ESBL producing Escherichia coli assessed as resistant isolates by broth microdilution method in presence of beta-lactamase inhibitor Tazobactam
Escherichia coli [27] = experiment: Antimicrobial activity against CTX-M ESBL producing Escherichia coli isolated from ICU patient blood assessed as resistant isolates by broth microdilution method in presence of beta-lactamase inhibitor Tazobactam
Escherichia coli [28] = experiment: Antimicrobial activity against CTX-M ESBL producing Escherichia coli isolated from ICU patient urine assessed as resistant isolates by broth microdilution method in presence of beta-lactamase inhibitor Tazobactam
Escherichia coli [29] = experiment: Antimicrobial activity against CTX-M ESBL producing Escherichia coli isolated from ICU patient wound assessed as resistant isolates by broth microdilution method in presence of beta-lactamase inhibitor Tazobactam
Escherichia coli [30] = experiment: Antimicrobial activity against CTX-M ESBL producing Escherichia coli isolated from ICU patient respiratory tract assessed as resistant isolates by broth microdilution method in presence of beta-lactamase inhibitor Tazobactam
Klebsiella pneumoniae [31] = experiment: Antimicrobial activity against ESBL producing Klebsiella pneumoniae assessed as resistant isolates by broth microdilution method in presence of beta-lactamase inhibitor Tazobactam
Klebsiella pneumoniae [32] = experiment: Antimicrobial activity against ESBL producing Klebsiella pneumoniae isolated from ICU patient blood assessed as resistant isolates by broth microdilution method in presence of beta-lactamase inhibitor Tazobactam
Klebsiella pneumoniae [33] = experiment: Antimicrobial activity against ESBL producing Klebsiella pneumoniae isolated from ICU patient urine assessed as resistant isolates by broth microdilution method in presence of beta-lactamase inhibitor Tazobactam
Klebsiella pneumoniae [34] = experiment: Antimicrobial activity against ESBL producing Klebsiella pneumoniae isolated from ICU patient wound assessed as resistant isolates by broth microdilution method in presence of beta-lactamase inhibitor Tazobactam
Klebsiella pneumoniae [35] = experiment: Antimicrobial activity against ESBL producing Klebsiella pneumoniae isolated from ICU patient respiratory tract assessed as resistant isolates by broth microdilution method in presence of beta-lactamase inhibitor Tazobactam
Pseudomonas aeruginosa [36] = experiment: Antimicrobial activity against carbapenem-resistant Pseudomonas aeruginosa assessed as resistant isolates by broth microdilution method in presence of beta-lactamase inhibitor Tazobactam
Pseudomonas aeruginosa [37] = experiment: Antimicrobial activity against carbapenem-resistant Pseudomonas aeruginosa isolated from ICU patient blood assessed as resistant isolates by broth microdilution method in presence of beta-lactamase inhibitor Tazobactam
Pseudomonas aeruginosa [38] = experiment: Antimicrobial activity against carbapenem-resistant Pseudomonas aeruginosa isolated from ICU patient urine assessed as resistant isolates by broth microdilution method in presence of beta-lactamase inhibitor Tazobactam
Pseudomonas aeruginosa [39] = experiment: Antimicrobial activity against carbapenem-resistant Pseudomonas aeruginosa isolated from ICU patient wound assessed as resistant isolates by broth microdilution method in presence of beta-lactamase inhibitor Tazobactam
Pseudomonas aeruginosa [40] = experiment: Antimicrobial activity against carbapenem-resistant Pseudomonas aeruginosa isolated from ICU patient respiratory tract assessed as resistant isolates by broth microdilution method in presence of beta-lactamase inhibitor Tazobactam
Enterobacter cloacae [41] = experiment: Antimicrobial activity against carbapenem-resistant Enterobacter cloacae assessed as resistant isolates by broth microdilution method in presence of beta-lactamase inhibitor Tazobactam
Enterobacter cloacae [42] = experiment: Antimicrobial activity against carbapenem-resistant Enterobacter cloacae isolated from ICU patient blood assessed as resistant isolates by broth microdilution method in presence of beta-lactamase inhibitor Tazobactam
Enterobacter cloacae [43] = experiment: Antimicrobial activity against carbapenem-resistant Enterobacter cloacae isolated from ICU patient urine assessed as resistant isolates by broth microdilution method in presence of beta-lactamase inhibitor Tazobactam
Enterobacter cloacae [44] = experiment: Antimicrobial activity against carbapenem-resistant Enterobacter cloacae isolated from ICU patient wound assessed as resistant isolates by broth microdilution method in presence of beta-lactamase inhibitor Tazobactam
Enterobacter cloacae [45] = experiment: Antimicrobial activity against carbapenem-resistant Enterobacter cloacae isolated from ICU patient respiratory tract assessed as resistant isolates by broth microdilution method in presence of beta-lactamase inhibitor Tazobactam
Haemophilus influenzae [46] = experiment: Antimicrobial activity against Haemophilus influenzae assessed as resistant isolates by broth microdilution method in presence of beta-lactamase inhibitor Tazobactam
Haemophilus influenzae [47] = experiment: Antimicrobial activity against Haemophilus influenzae isolated from ICU patient blood assessed as resistant isolates by broth microdilution method in presence of beta-lactamase inhibitor Tazobactam
Enterococcus sp. [48] = experiment: Antimicrobial activity against vancomycin-resistant Enterococcus sp. isolated from ICU patient respiratory tract assessed as resistant isolates by broth microdilution method
Staphylococcus aureus [49] = experiment: Antimicrobial activity against methicillin-susceptible Staphylococcus aureus isolated from ICU patient urine assessed as resistant isolates by broth microdilution method in presence of beta-lactamase inhibitor Tazobactam

CCN1CCN(C(=O)N[C@@H](C(=O)N[C@@H]2C(=O)N3[C@@H]2SC(C)(C)[C@@H]3C(=O)O)c2ccccc2)C(=O)C1=O [PIPERACILLIN]
Activity (Staphylococcus aureus [1]): 0%
Activity (Staphylococcus aureus [2]): 0%
Activity (Staphylococcus aureus [3]): 0%
Activity (Staphylococcus aureus [4]): 0%
Activity (Staphylococcus aureus [5]): 100%
Activity (Staphylococcus aureus [6]): 100%
Activity (Staphylococcus aureus [7]): 100%
Activity (Staphylococcus aureus [8]): 100%
Activity (Staphylococcus aureus [9]): 100%
Activity [10]: 1.2%
Activity [11]: 0%
Activity [12]: 0%
Activity [13]: 4.2%
Activity [14]: 0%
Activity [15]: 100%
Activity [16]: 100%
Activity [17]: 100%
Activity [18]: 100%
Activity (Haemophilus influenzae [19]): 0.3%
Activity (Haemophilus influenzae [20]): 0%
Activity (Enterococcus sp. [21]): 21.1%
Activity (Enterococcus sp. [22]): 27%
Activity (Enterococcus sp. [23]): 17.3%
Activity (Enterococcus sp. [24]): 22.2%
Activity (Enterococcus sp. [25]): 13.3%
Activity (Escherichia coli [26]): 1.9%
Activity (Escherichia coli [27]): 6.9%
Activity (Escherichia coli [28]): 1.1%
Activity (Escherichia coli [29]): 0%
Activity (Escherichia coli [30]): 1.6%
Activity (Klebsiella pneumoniae [31]): 9.3%
Activity (Klebsiella pneumoniae [32]): 6.1%
Activity (Klebsiella pneumoniae [33]): 13.3%
Activity (Klebsiella pneumoniae [34]): 18.9%
Activity (Klebsiella pneumoniae [35]): 7.3%
Activity (Pseudomonas aeruginosa [36]): 1.3%
Activity (Pseudomonas aeruginosa [37]): 0%
Activity (Pseudomonas aeruginosa [38]): 0%
Activity (Pseudomonas aeruginosa [39]): 0%
Activity (Pseudomonas aeruginosa [40]): 2.5%
Activity (Enterobacter cloacae [41]): 4.9%
Activity (Enterobacter cloacae [42]): 4.2%
Activity (Enterobacter cloacae [43]): 12.5%
Activity (Enterobacter cloacae [44]): 0%
Activity (Enterobacter cloacae [45]): 4.6%
Activity (Haemophilus influenzae [46]): 0.3%
Activity (Haemophilus influenzae [47]): 0%
Activity (Enterococcus sp. [48]): 0%
Activity (Staphylococcus aureus [49]): 0%
